Target: human 11β-HSD1 (Homo sapiens, UniProt P28845)
Experiment: Scintillation Proximity Assay: inhibition of purified 11β-HSD1 (Biological Test Example 1)
Format: biochemical
Design: made in house; host or cells: E. coli
Settings: purified recombinant 11β-HSD1, SPA; read-out: Biological Test Example 1 (IC50 class)
Experimental: The inhibition of purified 11β-HSD1 by compounds of Formula I or I* is measured using a Scintillation Proximity Assay. All reactions are carried out at room temperature in 96 well flexible Microbeta reaction plates. First, 1 μL of a 0.1 mM solution of a compound of Formula I or I* is mixed in DMSO diluted in half-log increments (8 points) starting at 1 μM final concentration. To this dot is added 50 μL of substrate solution (50 mM HEPES, pH 7.4, 100 mM KCl, 5 mM NaCl, 2 mM MgCl2 containing 20 μM ^3H cortisone, 1 mM NADPH). […] The reaction is then incubated for 90 minutes, and stopped by adding 50 μl of SPA bead mix (18-β-glycyrrhetinic acid, 10 μM final, 5 mg/ml protein A coated YSi SPA beads, and 1 μg/ml α-cortisol antibody (East Coast Biologics)). The plate is shaken for 120 minutes, and the radioactivity corresponding to ^3H cortisol is measured on a Wallac Microbeta.

human 11β-HSD1, sequence (P28845 whole entry, species assumed): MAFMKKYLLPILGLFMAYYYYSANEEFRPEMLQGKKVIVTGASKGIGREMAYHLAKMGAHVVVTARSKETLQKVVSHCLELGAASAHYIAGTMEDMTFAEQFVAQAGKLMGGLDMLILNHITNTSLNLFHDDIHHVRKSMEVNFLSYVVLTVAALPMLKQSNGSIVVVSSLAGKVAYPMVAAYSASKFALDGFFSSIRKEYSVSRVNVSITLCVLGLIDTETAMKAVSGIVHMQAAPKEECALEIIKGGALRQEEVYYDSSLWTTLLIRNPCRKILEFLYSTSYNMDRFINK

Compound | IC50 [nM]
(±)-Ethyl 1′-(cyclohexylcarbamoyl)spiro[chroman-2,4′-piperidine]-4-carboxylate [Example 17] | 50 to 1000
O=C(O)C1=CC2(CCN(C(=O)NC3C4CC5CC(C4)CC3C5)CC2)c2ccccc21 (centres unmarked) [Example 11, 1′-((2-Adamantyl)carbamoyl)spiro[indene-1,4′-piperidine]-3-carboxylic acid] | < 50
O=C(NC1C2CC3CC(C2)CC1C3)N1CCC2(CC1)CNc1ccccc12 (centres unmarked) [Example 2, N-(2-Adamantyl)spiro[indoline-3,4′-piperidine]-1′-carboxamide] | < 50
O=C(O)CC1CC2(CCN(C(=O)OC3C4CC5CC(C4)CC3C5)CC2)c2ccccc21 (centres unmarked) [Example 25, 2-(1′-((2-Adamantyloxy)carbonyl)-2,3-dihydrospiro[indene-1,4′-piperidine]-3-yl)acetic acid] | < 50
CC(C)(C)OC(=O)N1Cc2ccccc2C2(CCN(C(=O)NC3C4CC5CC(C4)CC3C5)CC2)C1 (centres unmarked) [Example 29, Tert-butyl 1′-((2-adamantyl)carbamoyl)-1H-spiro[isoquinoline-4,4′-piperidine]-2(3H)-carboxylate] | < 50
COC(=O)CC1CC2(CCN(C(=O)OC3C4CC5CC(C4)CC3C5)CC2)c2ccccc21 (racemic) [Example 24, (±)-2-Adamantyl 3-(2-methoxy-2-oxoethyl)-2,3-dihydrospiro[indene-1,4′-piperidine]-1′-carboxylate] | < 50
O=C(O)C1CC2(CCN(C(=O)NC3C4CC5CC(C4)CC3C5)CC2)c2ccccc21 (racemic) [Example 12, (±)-1′-((2-Adamantyl)carbamoyl)-2,3-dihydrospiro[indene-1,4′-piperidine]-3-carboxylic acid] | < 50
O=C(O)C1CC2(CCN(C(=O)NC3C4CC5CC(C4)CC3C5)CC2)Oc2ccccc21 (racemic) [Example 13, (±)-1′-((2-Adamantyl)carbamoyl)spiro[chroman-2,4′-piperidine]-4-carboxylic acid] | 50 to 1000
CC(=O)N1CC2(CCN(C(=O)NC3C4CC5CC(C4)CC3C5)CC2)c2ccccc21 (centres unmarked) [Example 7, 1-Acetyl-N-(2-adamantyl)spiro[indoline-3,4′-piperidine]-1′-carboxamide] | < 50
CC(C)(C)OC(=O)N1CC2(CCN(C(=O)NC3C4CC5CC(C4)CC3C5)CC2)c2ccccc21 (centres unmarked) [Example 1, Tert-butyl 1′-((2-adamantyl)carbamoyl)spiro[indoline-3,4′-piperidine]-1-carboxylate] | < 50
O=C(OC1C2CC3CC(C2)CC1C3)N1CCC2(CC1)CNc1ccc(F)cc12 (centres unmarked) [Example 21, 2-Adamantyl 5-fluorospiro[indoline-3,4′-piperidine]-1′-carboxylate] | < 50
CS(=O)(=O)N1CC2(CCN(C(=O)NC3C4CC5CC(C4)CC3C5)CC2)c2ccccc21 (centres unmarked) [Example 19, N-(2-Adamantyl)-1-(methylsulfonyl)spiro[indoline-3,4′-piperidine]-1′-carboxamide] | < 50
CC(C)(C)OC(=O)N1CCC2(CCCN(C(=O)NC3C4CC5CC(C4)CC3C5)C2)C1 (racemic) [Example 10, (±)-tert-Butyl 7((2-adamantyl)carbamoyl)-2,7-diazaspiro[4.5]decane-2-carboxylate] | 50 to 1000
(±)-2-(1′-(Cyclohexylcarbamoyl)spiro[chroman-2,4′-piperidine]-4-yl)acetic acid [Example 14] | 50 to 1000
Cc1ccc2c(c1)C1(CCN(C(=O)OC3C4CC5CC(C4)CC3C5)CC1)CN2C(=O)OC(C)(C)C (centres unmarked) [Example 130, 1-Tert-butyl 1′-(2-adamantyl) 5-methylspiro[indoline-3,4′-piperidine]-1,1′-dicarboxylate] | 50 to 1000
CC(C)(C)OC(=O)N1CC2(CCN(C(=O)OC3C4CC5CC(C4)CC3C5)CC2)c2cc(F)ccc21 (centres unmarked) [Example 129, 1-Tert-butyl 1′-(2-adamantyl) 5-fluorospiro[indoline-3,4′-piperidine]-1,1′-dicarboxylate] | 50 to 1000
CC(C)(C)OC(=O)N1CCC2(CCN(C(=O)NC3C4CC5CC(C4)CC3C5)CC2)CC1 (centres unmarked) [Example 8] | 50 to 1000

Source: US8927715B2, “Inhibitors of 11β-hydroxysteroid dehydrogenase type 1” (Vitae Pharmaceuticals, Inc., priority 2006, dated 2015)
